The record followed here is patent US20120095024A1, “TOLUIDINE SULFONAMIDES AND THEIR USE” (Elara Pharmaceuticals GmbH, priority 2008, published 2012).

This test deals with MCF7 cells. The test is described as follows: Cell proliferation assay (ATPlite), MCF-7. The note with it: Homo sapiens, inhibition of cell proliferation, 72 h. In kind it is cell-based, human. As for the experimental part: MCF-7 human breast adenocarcinoma cells and HL-60 acute promyelocytic leukaemia cells were obtained from ATCC (LGC Promochem). HG-1 multiple myeloma cells were obtained from Dr. D. Hose (DKFZ Heidelberg). The CellSensor® HRE-bla HCT116 cell line (colorectal carcinoma) was obtained from Invitrogen.
Cells were grown under humidified 95% air, 5% CO2 at 37° C. in Dulbecco's modified Eagle's medium (DMEM: MCF-7) or RPMI 1640 medium (RPMI: HL-60, HG-1) supplemented with 10% fetal bovine serum (FBS), 100 U/ml penicillin and 100 μg/ml streptomycin, 2 mM L-glutamine, and 2 ng/ml IL-6 (for the HG-1 cell line only). The HCT116 cell line was grown under the same atmospheric conditions in McCoy's 5A medium supplemented with 10% FBS and penicillin/streptomycin as above, in addition to blasticidin as a selection marker at a final concentration of 5 μg/ml.
Cell proliferation experiments were carried out in 96-well tissue culture plates with seeding of 2000 cells/well (MCF-7) or 1000 cells/well (HL-60, HG-1) in 100 μl of the relevant medium. Cells were subsequently incubated under the conditions mentioned for 24 h prior to addition of compounds.
For the determination of compound EC50 values, 10 μl compounds at 11× concentrations in 5.5% DMSO were added to the wells at various concentrations yielding a final constant percentage of 0.5% DMSO at the desired 1× compound concentration. As a positive control, cells were treated with 5.5% DMSO. The cells were then incubated for a further 72 h prior to the measurement.
To determine the degree of inhibition of cell proliferation, cells were treated with ATPlite solution according to the manufacturer's instructions (PerkinElmer, ATPlite 1-step Luminescence ATP Detection Assay System) and luciferase readout measured on an Envision HTS multilabel plate reader (PerkinElmer) in luminescence mode according to established protocols. Raw data were imported into an ActivityBase database (IDBS, ID Business Solutions) and EC50 values calculated using the IDBS program ActivityBase XE. Table 2A and 2B show the IC50 values obtained in the above-outlined cell proliferation assay for exemplary compounds of the invention.
A general note: Cellular ATP, detected with luciferase, serves as a proxy for viable cell number.

What is called EC50 is the concentration giving half of the maximal effect. Read a high EC50 as weaker potency. Turning to `COc1ccc(S(=O)(=O)Nc2cc(-c3ccc(C#N)cc3)ccc2C)cc1F` [Example 85, N-(4′-Cyano-4-methyl-biphenyl-3-yl)-3-fluoro-4-methoxy-benzenesulfonamide], the EC50 was below 0.5 µM.

`Cc1ccc(S(=O)(=O)Nc2cc(-c3cncc(C#N)c3)ccc2C)cc1` [Example 34, N-[5-(5-Cyano-pyridin-3-yl)-2-methyl-phenyl]-4-methyl-benzenesulfonamide] showed an EC50 below 0.5 µM.

`Cc1ccc(S(=O)(=O)Nc2cc(-c3cc(C(F)(F)F)ccn3)ccc2C)cc1` [Example 38, 4-Methyl-N-[2-methyl-5-(4-trifluoromethyl-pyridin-2-yl)-phenyl]-benzenesulfonamide] had an EC50 of 1 to 10 µM.

Regarding `COc1ccc(S(=O)(=O)Nc2cc(-c3ccc(C#N)c(OC)c3)ccc2C)cc1` [Example 89, N-(4′-Cyano-3′-methoxy-4-methyl-biphenyl-3-yl)-4-methoxy-benzenesulfonamide], the half-maximal effective concentration (EC50) is below 0.5 µM.

In the case of `Cc1ccc(-c2ccc(C#N)cc2)cc1NS(=O)(=O)c1ccc(O)cc1` [Example 100, N-(4′-cyano-4-methylbiphenyl-3-yl)-4-hydroxybenzenesulfonamide], the concentration giving a half-maximal response (EC50) lay within 1 to 10 µM.

Molecule `COc1nccc(-c2ccc(C)c(NS(=O)(=O)c3ccc(C)cc3)c2)n1` [Example 107, N-(5-(2-methoxypyrimidin-4-yl)-2-methylphenyl)-4-methylbenzenesulfonamide] registered an EC50 of 1 to 10 µM.

Molecule `COc1ccc(S(=O)(=O)Nc2cc(-c3ccc(OC(F)(F)F)cc3)ccc2C)cc1` [Example 83, 4-Methoxy-N-(4-methyl-4′-trifluoromethoxy-biphenyl-3-yl)-benzenesulfonamide] yielded an EC50 of 1 to 10 µM.

The molecule `Cc1ccc(-c2ccc(C#N)cc2)cc1NS(=O)(=O)c1ccc([N+](=O)[O-])cc1` [Example 86, N-(4′-Cyano-4-methyl-biphenyl-3-yl)-4-nitro-benzenesulfonamide] returned an EC50 of 1 to 10 µM.

`Cc1ccc(-c2ccc(C#N)cc2)cc1NS(=O)(=O)c1ccc([N+](=O)[O-])c(F)c1` [Example 105, N-(4′-cyano-4-methylbiphenyl-3-yl)-3-fluoro-4-nitrobenzenesulfonamide] had an EC50 of 1 to 10 µM.

Turning to `COc1ccc(S(=O)(=O)Nc2cc(-c3ccc(C#N)s3)ccc2C)cc1F` [Example 92, N-[5-(5-Cyano-thiophen-2-yl)-2-methyl-phenyl]-3-fluoro-4-methoxy-benzenesulfonamide], the EC50 was below 0.5 µM.

`COc1ccc(S(=O)(=O)Nc2cc(-c3ccc(C#N)c(O)c3)ccc2C)cc1` [Example 90, N-(4′-Cyano-3′-hydroxy-4-methyl-biphenyl-3-yl)-4-methoxy-benzenesulfonamide] registered an EC50 below 0.5 µM.

In turn, `Cc1ccc(S(=O)(=O)Nc2cc(-c3sccc3C#N)ccc2C)cc1` [Example 59, N-[5-(3-Cyano-thiophen-2-yl)-2-methyl-phenyl]-4-methyl-benzenesulfonamide] registered an EC50 of 0.5 to 1 µM.

In turn, `Cc1ccc(-c2ccc(C#N)s2)cc1NS(=O)(=O)c1ccc(N)cc1` [Example 93, 4-Amino-N-[5-(5-cyano-thiophen-2-yl)-2-methyl-phenyl]-benzenesulfonamide] yielded an EC50 below 0.5 µM.

As for `Cc1ccc(-c2ccc(C#N)cc2)cc1NS(=O)(=O)c1ccc(N)cc1` [Example 87, 4-Amino-N-(4′-cyano-4-methyl-biphenyl-3-yl)-benzenesulfonamide], the half-maximal effective concentration (EC50) was below 0.5 µM.

On to `COc1ccc(S(=O)(=O)Nc2cc(-c3cccc(C#N)c3)ccc2C)cc1` [Example 57, N-(3′-Cyano-4-methyl-biphenyl-3-yl)-4-methoxy-benzenesulfonamide], for which the EC50 lay in the range of 0.5 to 1 µM.

`COc1ccc(S(=O)(=O)Nc2cc(-c3ccc(C#N)nc3)ccc2C)cc1` [Example 61, N-[5-(6-Cyano-pyridin-3-yl)-2-methyl-phenyl]-4-methoxy-benzenesulfonamide] displayed an EC50 below 0.5 µM.
